{"source": "patent US7744927B2", "about": "“Methods of promoting hematopoietic and mesenchymal cell proliferation and differentiation” (University of Southern California, priority 1997, dated 2010)", "key": {"[1]": {"tested_on": "rat peritoneal macrophages", "test": "Respiratory burst (hydrogen peroxide generation), rat peritoneal macrophages", "type": "cell-based", "settings": "alone and in response to PMA 10 ng/ml; 4 hours exposure", "procedure": "(§1) The respiratory burst of leukocytes (macrophages and polymorphonuclear neutrophils) is one component of the mediator system used to kill bacteria. As with phagocytosis, the level of this respiratory burst activity in resident macrophages is low. […] Studies were conducted to assess the effect of in vitro exposure of murine or rat peritoneal macrophages and human peripheral blood mononuclear cells (PBMC) to various concentrations of AII on the capacity to generate hydrogen peroxide via the respiratory burst system. For the human studies, five different donors were examined.\n(§2) The murine or rat peritoneal cells were harvested by lavage with 5-15 ml of cold PBS with 0.5% bovine serum albumin. The human PBMC were harvested by venipuncture from normal human volunteers and isolated from peripheral blood by Ficoll Hypaque density centrifugation. After isolation, the cells were resuspended at 1×10^6 cells/ml and placed at 100 μl per well into 96 well plates. The cells were incubated with various concentrations of AII or AII analogues for 4 hours at 37° C. The cells were then preloaded with a fluorescent probe for hydrogen peroxide, 2,7 dichlorofluorescein acetate, which is nonfluorescent in the absence of hydrogen peroxide. […] One hour after stimulation the level of fluorescence produced was measured on a Cytofluor 2350 multiwell fluorometer."}, "[2]": {"tested_on": "murine peritoneal macrophages", "test": "Respiratory burst (hydrogen peroxide generation), murine peritoneal macrophages", "type": "cell-based", "settings": "alone and in response to PMA 10 ng/ml; 4 hours exposure", "procedure": "as §1, §2"}, "Human PBMC": {"tested_on": "Human PBMC", "test": "Proliferation of human PBMC, 3H-thymidine incorporation with or without pokeweed mitogen", "type": "cell-based", "settings": "for Stimulation Index (SI): stimulated counts / counts without mitogen", "procedure": "Upon stimulation of lymphocytes with mitogen or antigen, these cells undergo blastogenesis and proliferation. In the absence of such stimuli, proliferation is seldom observed. One method to measure cellular proliferation in a short term assay is via measurement of the amount of the nucleotide thymidine that is incorporated into newly synthesized DNA. The effect of AII on the proliferation of human PBMC in the presence and absence of pokeweed mitogen (“PWM”) was assessed.\nHuman PBMC were collected from normal volunteers and isolated via Ficoll Hypaque (Sigma Chemical, St. Louis) density centrifugation. After isolation of the buffy coat, the cells were washed 3× to remove the Ficoll Hypaque, counted in trypan blue (0.01%) and resuspended at a concentration of 1×10^6 cells/ml in RPMI 1640 containing 10% fetal calf serum and antibiotics. A 100 μl aliquot of cells was added to each well. Thereafter, various concentrations (0.1 to 1000 μg/ml final concentration) of AII in RPMI 1640 containing 10% FCS and antibiotics were added to various wells in triplicate. To the appropriate wells, PWM (20 μg/ml final concentration) was added. These plates were incubated at 37° C. in 5% CO2 for 48 hours. Subsequently, 0.5 μCi of ^3H-thymidine was added to each well, which were incubated at 37° C. for an additional 24 hours prior to harvest by a multiwell automated sample harvester (Skatron) onto glass fiber filters. These filters were dried, placed in scintillation fluid and the amount of thymidine incorporated was determined by beta counting."}, "rat MSC": {"tested_on": "rat MSC", "test": "Rat mesenchymal stem cell proliferation in bone marrow culture", "type": "cell-based, Sprague Dawley rats", "settings": "1 to 100 μg/ml, in presence of serum", "procedure": "These studies were conducted to determine the effect that AII would have on the proliferation of MSC. Bone marrow cells were harvested from the femur and tibia of female Sprague Dawley rats by flushing the bones with Dulbecco's Minimal Essential Medium-High Glucose (“DMEM-HG”) with a syringe and an 18 gauge needle. These cells were cultured in 24 well plates at 5×10^3 cells/mm^2 in DMEM-HG containing selected lots of fetal calf serum (FCS) and antibiotics (complete medium) at 37° C. incubator containing 5% CO2 in air. Twenty-four hours after the initiation of the cultures the medium and nonadherent cells were aspirated and fresh medium was added. To each of these several wells, complete medium with (1 to 100 μg/ml) or without AII was added. The migration of cells from the clones and their proliferation was followed by microscopic examination. Every 4 days the old medium was removed and fresh medium was added to the cultures. These studies were conducted to determine the effect that inclusion of AII analogues and fragments in the cell culture of MSC would have on the proliferation of these cells. Bone marrow cells were harvested from the femur and tibia of female Sprague Dawley rats by flushing the bones with Dulbecco's Minimal Essential Medium-High Glucose (“DMEM-HG”) with a syringe and an 18 gauge needle. […]"}, "wound tissue": {"tested_on": "wound tissue", "settings": "application to wound tissue; cited from earlier work"}, "[3]": {"tested_on": "cultured cells that are involved in wound repair", "settings": "cited from earlier work"}, "rabbit corneal eye": {"tested_on": "rabbit corneal eye", "settings": "in vivo; cited from earlier work"}, "[4]": {"tested_on": "chick chorioallantoic membrane", "settings": "in vivo; cited from earlier work"}}, "data": [{"substance": "Asp-Arg-Val-Tyr-Ile-His-Pro-Phe [AII, known pressor agent, commercially available]", "values": [{"measurement": "ability to generate hydrogen peroxide (respiratory burst)", "setting": "[1]", "value": "increased the ability of leukocytes to generate hydrogen peroxide"}, {"measurement": "ability to generate hydrogen peroxide (respiratory burst)", "setting": "[2]", "value": "increased the ability of leukocytes to generate hydrogen peroxide"}, {"measurement": "Stimulation Index (SI)", "setting": "Human PBMC; AII Concentration 0.1, Experiment 1 (donor 1)", "value": 3.54}, {"measurement": "Stimulation Index (SI)", "setting": "Human PBMC; AII Concentration 0.1, Experiment 2 (donor 2)", "value": 38.13}, {"measurement": "cpm 3H-Thymidine Incorporated", "setting": "Human PBMC; AII Concentration 0.1, PWM, Experiment 1 (donor 1)", "value": 1329.0, "unit": "cpm"}, {"measurement": "cpm 3H-Thymidine Incorporated", "setting": "Human PBMC; AII Concentration 0.1, PWM, Experiment 2 (donor 2)", "value": 2135.0, "unit": "cpm"}, {"measurement": "Stimulation Index (SI)", "setting": "Human PBMC; AII Concentration 1, Experiment 1 (donor 1)", "value": 5.88}, {"measurement": "Stimulation Index (SI)", "setting": "Human PBMC; AII Concentration 1, Experiment 2 (donor 2)", "value": 62.42}, {"measurement": "cpm 3H-Thymidine Incorporated", "setting": "Human PBMC; AII Concentration 1, PWM, Experiment 1 (donor 1)", "value": 1411.2, "unit": "cpm"}, {"measurement": "cpm 3H-Thymidine Incorporated", "setting": "Human PBMC; AII Concentration 1, PWM, Experiment 2 (donor 2)", "value": 2996.0, "unit": "cpm"}, {"measurement": "Stimulation Index (SI)", "setting": "Human PBMC; AII Concentration 10, Experiment 1 (donor 1)", "value": 5.34}, {"measurement": "Stimulation Index (SI)", "setting": "Human PBMC; AII Concentration 10, Experiment 2 (donor 2)", "value": 75.88}, {"measurement": "cpm 3H-Thymidine Incorporated", "setting": "Human PBMC; AII Concentration 10, PWM, Experiment 1 (donor 1)", "value": 1427.0, "unit": "cpm"}, {"measurement": "cpm 3H-Thymidine Incorporated", "setting": "Human PBMC; AII Concentration 10, PWM, Experiment 2 (donor 2)", "value": 3946.0, "unit": "cpm"}, {"measurement": "Stimulation Index (SI)", "setting": "Human PBMC; AII Concentration 100, Experiment 1 (donor 1)", "value": 11.41}, {"measurement": "Stimulation Index (SI)", "setting": "Human PBMC; AII Concentration 100, Experiment 2 (donor 2)", "value": 69.39}, {"measurement": "cpm 3H-Thymidine Incorporated", "setting": "Human PBMC; AII Concentration 100, PWM, Experiment 1 (donor 1)", "value": 1552.1, "unit": "cpm"}, {"measurement": "cpm 3H-Thymidine Incorporated", "setting": "Human PBMC; AII Concentration 100, PWM, Experiment 2 (donor 2)", "value": 3747.0, "unit": "cpm"}, {"measurement": "Stimulation Index (SI)", "setting": "Human PBMC; AII Concentration 1000, Experiment 1 (donor 1)", "value": 15.48}, {"measurement": "Stimulation Index (SI)", "setting": "Human PBMC; AII Concentration 1000, Experiment 2 (donor 2)", "value": 89.63}, {"measurement": "cpm 3H-Thymidine Incorporated", "setting": "Human PBMC; AII Concentration 1000, PWM, Experiment 1 (donor 1)", "value": 1551.5, "unit": "cpm"}, {"measurement": "cpm 3H-Thymidine Incorporated", "setting": "Human PBMC; AII Concentration 1000, PWM, Experiment 2 (donor 2)", "value": 4302.0, "unit": "cpm"}, {"measurement": "thymidine incorporated in response to PWM", "setting": "Human PBMC; PWM 20 μg/ml, two donors", "value": "increase the amount of thymidine incorporated"}, {"measurement": "thymidine incorporation", "setting": "Human PBMC; absence of mitogen", "value": "no increase in thymidine incorporation"}, {"measurement": "number of sites from which the MSC were migrating (CFU)", "setting": "rat MSC", "value": "significantly increased"}, {"measurement": "size (number of cells) of the colonies formed", "setting": "rat MSC", "value": "significantly increased"}, {"measurement": "rate of wound healing", "setting": "wound tissue", "value": "significantly increases the rate of wound healing"}, {"measurement": "mitogenesis and chemotaxis", "setting": "[3]", "value": "increases mitogenesis and chemotaxis"}, {"measurement": "angiogenic activity", "setting": "rabbit corneal eye", "value": "angiogenic"}, {"measurement": "angiogenic activity", "setting": "[4]", "value": "angiogenic"}]}]}
